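Growth conditions: 96-well plates. Treatment: test compound, 48 hours, 5 concentrations. Analysis: linear interpolation between bracketing concentrations; unreached endpoints set to highest concentration. TGI is the concentration that stops growth completely.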
Legend:
Assay in all cases: NCI anticancer screen, dose series, 48 h
SF-295 CNS = tested on: SF-295 CNS
DU-145 prostate = tested on: DU-145 prostate
UACC-62 melanoma = tested on: UACC-62 melanoma
RPMI-8226 leukemia = tested on: RPMI-8226 leukemia
NCI-H460 lung = tested on: NCI-H460 lung
HT29 colon = tested on: HT29 colon
MOLT-4 leukemia = tested on: MOLT-4 leukemia
OVCAR-5 ovarian = tested on: OVCAR-5 ovarian
NCI-H522 lung = tested on: NCI-H522 lung
MALME-3M melanoma = tested on: MALME-3M melanoma

Compound | TGI (SF-295 CNS) [µM] | TGI (DU-145 prostate) [µM] | TGI (UACC-62 melanoma) [µM] | TGI (RPMI-8226 leukemia) [µM] | TGI (NCI-H460 lung) [µM] | TGI (HT29 colon) [µM] | TGI (MOLT-4 leukemia) [µM] | TGI (OVCAR-5 ovarian) [µM] | TGI (NCI-H522 lung) [µM] | TGI (MALME-3M melanoma) [µM]
CCOC(=O)c1csc(NC(=O)CCN2CCN(C)CC2)n1 | > 100 | > 100 | > 100 | > 100 | > 100 | > 100 | > 100 | > 100 |  | 
Cc1ccc(C)c(COCCOCn2cc(N3CCOCC3)c(=O)[nH]c2=O)c1 | > 100 | > 100 | > 100 |  | > 100 |  | > 100 | > 100 | > 100 | > 100
CC/C=N\N1C(N)=C(C#N)C(C#N)(C#N)C1CC (stereo not drawn) | > 100 | > 100 | > 100 | > 100 |  | 86.4 | > 100 | > 100 | > 100 | > 100
O=C(C(=C(I)I)c1ccccc1)c1ccccc1 | 65.5 |  | 53.4 | 45.5 | > 100 | > 100 | 58.1 | > 100 |  | 46.8
O=C1c2cc3c(cc2CC12Cc1ccc4c(c1C2=O)CCC4)CCC3 (stereo not drawn) | > 100 | > 100 |  | > 100 | > 100 | > 100 | > 100 | > 100 | > 100 | > 100
CCOC(=O)/C=C/CCC(C)(C)COC(C)=O | > 10 | > 10 | > 10 | > 10 | > 10 | > 10 | > 10 | > 10 | > 10 | 
CCOC(=O)c1csc(NC(=O)CCN2CCCC2)n1 | > 100 | > 100 | > 100 | > 100 | > 100 | > 100 | > 100 | > 100 |  | 
NC(=O)c1ccc[n+](C2=C([O-])c3ccccc3C(=O)/C2=N\S(=O)(=O)c2ccccc2)c1 | 31.5 | 34 | 32.1 | > 100 | 47.9 | 34 | 81.5 | 33.3 | 24.1 | 20.1
CCOC(=O)N1CCN(c2c(N)nc(C)[nH]c2=O)CC1 | > 100 | > 100 |  | > 100 | > 100 | > 100 | > 100 | > 100 | > 100 | > 100
CC[C@]12C=CCN3CCC4(c5cc([C@@]6(C(=O)OC)CC7CN(CCc8c6[nH]c6ccccc86)CC6CCCCC67)c(OC)cc5N(C)C4[C@](O)(C(=O)OC)C1OC(C)=O)[C@@H]32 (stereo partly drawn) | 15.1 | 14.2 | 1.7 | 61.3 | 0.225 | < 0.01 |  | 0.0926 | < 0.0165 | 7.05
CNC(=S)N1CCN(C(C)=O)C1=S | > 100 | > 100 | > 100 |  | > 100 | > 100 | > 100 | > 100 | > 100 | 43.2
Cc1cc(S(=O)(=O)N=C2Nc3cccc4cccc(c34)N2)c(S)cc1Cl | > 100 | > 100 | > 100 | > 100 | > 100 |  | > 100 | > 100 | > 100 | > 100
O=C(Nc1nn(C(=O)c2cccnc2)c(=O)s1)c1ccc(Cl)cc1 | > 100 | > 100 | > 100 |  | > 100 | > 100 | > 100 | > 100 | 51.7 | 91.5
N#CCCN(CCC#N)c1ccc(C(N=Nc2ccccc2)=Nc2ccc(F)cc2)cc1 | > 100 | > 100 | > 100 | > 100 | > 100 | > 100 | > 100 | > 100 | 69.8 | 
CC(C)=C/C(CC(O)(C(F)(F)F)C(F)(F)F)=N\O | > 100 | > 100 | > 100 | > 100 | > 100 | > 100 | > 100 | > 100 |  | > 100
O=C(c1ccco1)N(C(=O)N1CCC(c2ccccc2)CC1)c1ccccc1 |  | > 100 | > 100 | 60 |  | > 100 | 54.2 | > 100 |  | > 100
CC1(C)N=C(N)N=C(N)N1c1cccc(Cl)c1 | > 100 | > 100 | > 100 |  | > 100 | > 100 |  | > 100 | > 100 | > 100
CC(=N/NC(=S)N(C)C)/C(=N\NC(=S)N(C)C)c1ccccc1 | 4.46 | 10.6 | 4.44 |  | 3.91 | 9.46 | > 100 | 5.03 | 3.78 | 3.5
CCOC(=O)C(NC(=O)c1cccc(Cl)c1)(Nc1cccc(C)c1)C(F)(F)F (stereo not drawn) |  | 99.6 | 28.5 | > 100 | 47.6 | 27.8 | 67.8 |  | 20.5 | 30.4
CO[P@@]1(=O)O[C@@H](c2ccccc2)[C@H](O)[C@]1(O)c1ccccc1 | > 100 | > 100 | > 100 | > 100 | > 100 | > 100 | > 100 |  | > 100 | > 100
Cc1cc(-c2cc(C(C)(C)C)c(O)c(C(C)(C)C)c2)c(C)cc1-c1cc(C(C)(C)C)c(O)c(C(C)(C)C)c1 | > 100 | > 100 | > 100 | > 100 |  | > 100 | > 100 | > 100 | > 100 | > 100
CSc1ncc2c(n1)-c1ccccc1OC2NC1CC1 (stereo not drawn) | > 100 | > 100 | > 100 | 96.9 | > 100 | > 100 | > 100 | > 100 | 82.5 | 
CCCn1cc2c3c(cccc31)C1C=C(C)CN(C)C1C2 (stereo not drawn) | 55.2 |  | 55.7 | 25.1 | 36.6 | 42.7 | 40.2 | 57 | 57.1 | 55.5

Compound | TGI (SF-295 CNS) [µM] | TGI (DU-145 prostate) [µM] | TGI (UACC-62 melanoma) [µM] | TGI (RPMI-8226 leukemia) [µM] | TGI (NCI-H460 lung) [µM] | TGI (HT29 colon) [µM] | TGI (MOLT-4 leukemia) [µM] | TGI (OVCAR-5 ovarian) [µM] | TGI (NCI-H522 lung) [µM] | TGI (MALME-3M melanoma) [µM]
O=C1CSC(c2c[nH]c3ccccc23)N1c1ccc(Cl)cc1Cl (stereo not drawn) | > 100 | > 100 | > 100 | > 100 | > 100 | > 100 | > 100 | > 100 | > 100 | 
C=C1[C@@H]2CCC3[C@]4(C)C(CC[C@@]5(C)C(=O)O[C@H](O)[C@@H]45)[C@H](O)[C@]3(C2)[C@H]1OC1OC(CO)C(O)C(O)C1O (stereo partly drawn) | > 50 | > 50 | > 50 | > 50 | > 50 | > 50 | > 50 | > 50 |  | > 50
Cc1nc2c(=O)n(-c3ccccc3)c(=O)n(-c3ccccc3)c2o1 | > 100 |  | > 100 | > 100 | > 100 | > 100 | > 100 | > 100 | > 100 | > 100
c1cncc(CSc2nc3ccccc3nc2-c2cccs2)c1 | > 100 |  |  | > 100 | > 100 | > 100 | 98.7 | > 100 | > 100 | > 100
Cc1cc(-c2ccccc2)nc2oc(=O)n(C)c12 | > 100 | > 100 | > 100 |  | > 100 | > 100 | > 100 | > 100 | > 100 | > 100
CCOC(=O)c1c(SCc2cc(=O)[nH]c(=O)[nH]2)n(-c2ccccc2)c(=S)n(-c2ccccc2)c1=O |  | > 100 | > 100 | > 100 | > 100 | > 100 | > 100 | > 100 |  | > 100
Nc1c(N2CCOCC2)c(=O)nc2[nH]/c(=C\c3ccccc3O)c(=O)n12 | > 100 | > 100 |  | 77.3 | > 100 | > 100 | > 100 | > 100 | > 100 | > 100
C=CN(C=C)C(=O)Cn1cc(-c2ccccc2)nn1 | > 100 | > 100 |  | > 100 | > 100 | > 100 | > 100 | > 100 | > 100 | > 100
Cc1c(C(=O)NNc2ccccc2)n2c(=S)[nH]nc2c2ccccc12 | > 100 | > 100 | > 100 | > 100 | > 100 | > 100 | > 100 | > 100 | > 100 | 
CCN(CC)C(=S)N/N=C(/c1ccccc1)c1ccccn1 | 25.4 | > 65.9 |  | 45.1 | 0.385 | > 40.1 | > 100 | 22.9 | > 100 | > 47.1
CCn1ncc2c(=O)n3ncn(-c4ccc(Br)cc4)c3nc21 | > 100 | > 100 | > 100 | > 100 |  | > 100 | > 100 | > 100 | > 100 | > 100
COc1ccc2c(c1OC)C(=O)N1C2=Cc2c(cc3c(c2OC)OCO3)CC1N(C)C (stereo not drawn) | > 100 | > 100 | > 100 | 99.6 | > 100 |  | > 100 | > 100 | > 100 | > 100
CC1(C)OCC(C2OC(C)(C)OC2[C@H]2O[C@@]3(O)[C@H]4[C@H](C=CC[C@@H]42)[C@@H](OCc2ccccc2)[C@H](OCc2ccccc2)[C@H]3OCc2ccccc2)O1 (stereo partly drawn) | > 100 | > 100 | > 100 |  | > 100 | 71.3 | 44.3 | > 100 | > 100 | > 100
O=C([C@H](O)[C@@H](O)c1cccc(Cl)c1)C12CC3CC(CC(C3)C1)C2 | 11.4 | 5.08 | 3.32 | > 22.7 |  | 6.17 | > 100 | 8.79 | 5.04 | 18.2
N#Cc1c(-c2ccc([N+](=O)[O-])cc2)c(C#N)c(=O)n(NS(=O)(=O)c2ccccc2)c1O | > 100 |  | > 100 | > 100 | > 100 | > 100 | > 100 | > 100 | > 100 | > 100
CCCCNC(=O)Cn1c2ccc(Br)cc2c2nc3ccccc3nc21 | > 100 | > 100 | > 100 | > 100 |  | > 100 | > 100 | > 100 |  | 
COc1cc2c(c(OC)c1)[C@H](C)N(Cc1ccccc1)C(C)C2 (stereo partly drawn) | > 100 | > 100 | > 100 | > 100 | > 100 | 75.2 | > 100 |  | > 100 | > 100
O=c1c2c3c(sc2nc2n1N=C(c1ccc(Br)cc1)CS2)CCCC3 | > 100 | > 100 | > 100 |  | > 100 | > 100 | > 100 | > 100 | > 100 | > 100
CCC1(CC)C(=O)N(C(=O)c2cc(OC)c(OC)c(OC)c2)N(C(=O)c2cc(OC)c(OC)c(OC)c2)C1=O | > 50 | > 50 | > 50 | > 50 | > 50 | > 50 |  | > 50 | > 50 | > 50
O=c1c2cc([N+](=O)[O-])ccc2oc2nc3n(c(=O)c12)CCCS3 | > 100 | > 100 | > 100 | > 100 | > 100 |  | > 100 | > 100 | > 100 | > 100
CSc1ccc(/C=C2\N=C(c3ccccc3)N(c3nc4cc(Cl)c(F)cc4s3)C2=O)cc1 | > 100 | > 100 | > 100 | > 100 | > 100 | > 100 | > 100 | > 100 |  | 
CC(C)(C)/C(O)=C\c1nc2cc(F)c(F)cc2[nH]c1=O | > 100 | 57 | > 100 |  | > 100 | > 100 | > 100 |  |  | 
O=c1c2ccc(Cl)cc2oc2c(CNc3ccc(S(=O)(=O)Nc4ncccn4)cc3)cccc12 | > 100 |  | > 100 | > 100 |  | > 100 | > 100 | > 100 | > 100 | > 100
